Assay type in all cases: cell-based, Pseudomonas aeruginosa
Experiment [1] concerns Colistin Susceptible P. aeruginosa. Here is the method:
(§1) The antimicrobial activity of the peptides was tested against a collection of P. aeruginosa, selected by their resistance or susceptibility to colistin and/or classified as MDR strains. The origin of the strains was either clinical, relevant to the current clinical situation, or commercial strains belonging to the American Type Culture Collection (ATCC, Manassas, VA, USA), which complemented the collection for comparison and control. For the initial activity screening of the 17 peptides, we tested them against P. aeruginosa ATCC strains 1211007 and 1211101. Both strains are multidrug-resistant; however, the key difference is that strain 1211007 is susceptible to colistin, whereas strain 1211101 is resistant to colistin.
(§2) Minimum Inhibitory Concentration (MIC) of the antimicrobial agents against bacterial strains was obtained through broth microdilution assays following a protocol based on the Clinical & Laboratory Standards Institute’s guidelines. Modifications regarding microplate material and broth were included when testing the peptides’ activity and are detailed below. Colistin MICs were obtained following recommendations of the joint CLSI-EUCAST Polymyxin Breakpoints Working Group using Cation Adjusted Mueller-Hinton Broth (90922, 500 g Sigma-Aldrich®, St. Louis, MO, USA), and strains Escherichia coli 13846 (mcr-1 positive) and P. aeruginosa ATCC 27853 were used as quality controls in all assays. Bacteria were cultured in Columbia Agar plates (Columbia Agar with 5% Sheep Blood 90 mm Stacker plates, Becton Dickinson, Franklin Lakes, NJ, USA) and incubated overnight at 37 °C. Polypropylene round-bottomed 96-well plates (-96-well Polypropylene Storage Microplates, 267334, Thermo Fischer Scientific, Waltham, MA, USA) were used to prevent peptide binding to plate walls. AST broth (BD Phoenix™ AST broth, 8 mL, 246003, Becton Dickinson, Franklin Lakes, NJ, USA) was used when testing the peptides’ activity. […] Three biological and technical replicates were performed per strain.

The subject of experiment [2] is Colistin-Resistant P. aeruginosa. Here is the method: as §1, §2
The subject of experiment [3] is P. aeruginosa strain panel. As to conditions: for MIC50 / MIC90: panel of 15 P. aeruginosa strains. Here is the method: as §1, §2
Experiment [4] relates to P. aeruginosa Strain 121007. Here is the method:
as §1, §2

Experiment [5] concerns P. aeruginosa Strain ATCC 121110. Here is the method:
as §1, §2

The mark [6] stands for this setting: colistin-susceptible P. aeruginosa.
Where [7] appears, read: colistin-susceptible P. aeruginosa, value in brackets.
Where [8] appears, read: colistin-resistant P. aeruginosa.
Where [9] appears, read: colistin-resistant P. aeruginosa, value in brackets.
[10] abbreviates: Strain 121007, value in brackets.
Setting [11] is: Strain ATCC 121110, value in brackets.

Read-outs that look alike come from different tables or passages of the source. Bridge positions count the residues as written; N and C are the ends. Square brackets hold non-standard residues; d marks the D form. Ends that are not written are not given here. Peptide text beside a SMILES is read from it.

This passage reports MIC, MIC50 and MIC90 results from article PMC12382740, “In Vitro and In Vivo Characterization of Novel Cathelicidin-Based Peptides with Antimicrobial Activity Against Pseudomonas aeruginosa” (Antibiotics, 2025).

As for Colistin [reference compound], the MIC is 0.75 µg/mL in experiment [1] (setting [6]); 0.7 µM in experiment [1] (setting [7]); 32 µg/mL in experiment [2] (setting [8]); 28 µM in experiment [2] (setting [9]); at most 0.125 µg/mL in experiment [3] (strain 12-1110 S1); at most 0.125 µg/mL in experiment [3] (strain 15-0307 S4). Further, the MIC in experiment [3] (strain 15-0803 S3) was at most 0.125 µg/mL; in experiment [3] (strain 21-0308 R2), 64 µg/mL; in experiment [3] (strain 21-0410 S5), at most 0.125 µg/mL; in experiment [3] (strain 21-0505 S2), at most 0.125 µg/mL; in experiment [3] (strain 36a), 0.25 µg/mL; in experiment [3] (strain 38a), at most 0.125 µg/mL. Also, the MIC in experiment [3] (strain 27853) was at most 0.125 µg/mL; in experiment [3] (strain 16359347-2 R3) it was 64 µg/mL; in experiment [3] (strain C1), 0.25 µg/mL; in experiment [3] (strain C2), 0.5 µg/mL; in experiment [3] (strain C3), at most 0.125 µg/mL; in experiment [3] (strain C4), 0.25 µg/mL. In experiment [3] (strain C5), this compound displayed an MIC of at most 0.125 µg/mL. Also, the figures for the MIC50 in experiment [3] and in experiment [3] (value in brackets) were at most 0.125 µg/mL and at most 0.11 µM, respectively. For the same compound, the MIC90 in experiment [3] was determined as 64 µg/mL; in experiment [3] (value in brackets), 55 µM.
As for `CC[C@@H](C)[C@@H](NC(=O)CNC(=O)[C@@H](CCC(N)=O)NC(=O)[C@@H](CCCCN)NC(=O)[C@H](NC(=O)[C@@H](CCC(N)=O)NC(=O)CNC(=O)[C@@H](CC(C)C)NC(=O)[C@@H](CC(C)C)NC(=O)[C@H]1CCCN1C(=O)[C@@H](CCCCN)NC(=O)[C@@H](CC(C)C)NC(=O)[C@@H](C)NC(=O)[C@H]1CCCN1C(=O)[C@@H](CCCNC(=N)N)NC(=O)[C@H](NC(=O)[C@@H](CC(=O)O)NC(=O)[C@H](N)Cc1ccc(O)cc1)[C@H](C)O)[C@H](C)CC)C(=O)N[C@H](CCCCN)C(=O)N[C@H](CCCCN)C(=O)N[C@H](CC(C)C)C(=O)N[C@H](CCCCN)C(=O)N[C@H](CCC(=O)O)C(=O)N[C@H](CCCCN)C(=O)N[C@@H](C(=O)N[C@H](CCCCN)C(=O)N[C@H](CC(N)=O)C(=O)N[C@H](CCCNC(=N)N)C(=O)N[C@H](Cc1ccccc1)C(=O)N[C@H](CCCCN)C(=O)N[C@H](CCCNC(=N)N)C(=O)N[C@H](CC(C)C)C(=O)N[C@H](CCCNC(=N)N)C(=O)N[C@H](CCCCN)C(=O)N[C@H](CCCNC(=N)N)C(=O)N[C@H](CC(C)C)C(=O)NCC(=O)O)[C@H](C)CC` [R-CAP-18, Ydtrpalkpllgqikqgikklkekiknrfkrlrkrlg] (H-[dY][dD][dT][dR][dP][dA][dL][dK][dP][dL][dL]G[dQ][dI][dK][dQ]G[dI][dK][dK][dL][dK][dE][dK][dI][dK][dN][dR][dF][dK][dR][dL][dR][dK][dR][dL]G-OH), the MIC in experiment [4] (Strain 121007) stood at 2 µg/mL; in experiment [4] (setting [10]) it was 0.4 µM; in experiment [5] (Strain ATCC 121110) it was 32 µg/mL; in experiment [5] (setting [11]) it was 7.2 µM.
For “H-FRNKIKEKLKKIGQKIQGLLPKL-OH [CAP-18_23]”, the MIC in experiment [4] (Strain 121007) is above 64 µg/mL; in experiment [4] (setting [10]), above 24 µM; in experiment [5] (ATCC 121110) it was above 32 µg/mL; in experiment [5] (setting [11]) it was above 12 µM.
Turning to H-IKEKLKKIGQKIQGLLPKL-OH [CAP-18_19], the MIC was above 64 µg/mL in experiment [4] (Strain 121007), above 29 µM in experiment [4] (setting [10]), above 64 µg/mL in experiment [5] (ATCC 121110) and above 29 µM in experiment [5] (setting [11]).
On to `CC[C@@H](C)[C@@H](NC(=O)CNC(=O)[C@@H](CCC(N)=O)NC(=O)[C@@H](CCCCN)NC(=O)[C@H](NC(=O)[C@@H](CCC(N)=O)NC(=O)CNC(=O)[C@@H](CC(C)C)NC(=O)[C@@H](CC(C)C)NC(=O)[C@H]1CCCN1C(=O)[C@@H](CCCCN)NC(=O)[C@H](N)CC(C)C)[C@H](C)CC)C(=O)N[C@H](CCCCN)C(=O)N[C@H](CCCCN)C(=O)N[C@H](CC(C)C)C(=O)N[C@H](CCCCN)C(=O)N[C@H](CCC(=O)O)C(=O)N[C@H](CCCCN)C(=O)N[C@@H](C(=O)N[C@H](CCCCN)C(=O)N[C@H](CC(N)=O)C(=O)N[C@H](CCCNC(=N)N)C(=O)N[C@H](Cc1ccccc1)C(=O)N[C@H](CCCCN)C(=O)N[C@H](CCCNC(=N)N)C(=O)N[C@H](CC(C)C)C(=O)N[C@H](CCCNC(=N)N)C(=O)N[C@H](CCCCN)C(=O)N[C@H](CCCNC(=N)N)C(=O)N[C@H](CC(C)C)C(=O)NCC(=O)O)[C@H](C)CC` [R-CAP-18_31, Lkpllgqikqgikklkekiknrfkrlrkrlg] (H-[dL][dK][dP][dL][dL]G[dQ][dI][dK][dQ]G[dI][dK][dK][dL][dK][dE][dK][dI][dK][dN][dR][dF][dK][dR][dL][dR][dK][dR][dL]G-OH), for which the MIC in experiment [4] (Strain 121007) turned out to be 0.5 µg/mL; in experiment [4] (setting [10]), 0.1 µM; in experiment [5] (Strain ATCC 121110), 4 µg/mL; in experiment [5] (setting [11]), 1.1 µM.
Take `CC[C@H](C)[C@@H]1NC(=O)[C@@H]2CSSC[C@@H]3NC(=O)[C@H](Cc4ccccc4)NC(=O)[C@H](C)NC(=O)[C@H](Cc4c[nH]c5ccccc45)NC(=O)[C@H](CC(C)C)NC(=O)[C@H](CCCNC(=N)N)NC(=O)CNC(=O)[C@H](CCC(N)=O)NC(=O)[C@H](Cc4ccc(O)cc4)NC(=O)[C@H]([C@@H](C)CC)NC(=O)[C@H](CSSC[C@H](NC(=O)[C@H](Cc4ccc(O)cc4)NC(=O)[C@@H](N)CSSC[C@@H](C(=O)O)NC3=O)C(=O)N[C@@H](CCCNC(=N)N)C(=O)N[C@@H]([C@@H](C)CC)C(=O)N3CCC[C@H]3C(=O)N[C@@H](C)C(=O)N2)NC(=O)[C@H]([C@@H](C)O)NC(=O)CNC(=O)[C@H](Cc2ccc(O)cc2)NC(=O)[C@H](CCCNC(=N)N)NC(=O)[C@H](CCCNC(=N)N)NC(=O)[C@H](CCC(=O)O)NC(=O)CNC(=O)[C@H](C)NC1=O` [α-defensin 2] (H-CYCRIPACIAGERRYGTCIYQGRLWAFCC-OH; disulfide 1-29, 3-18, 8-28; N-terminus and C-terminus assumed): the minimum inhibitory concentration (MIC) in experiment [1] (Colistin Susceptible) is above 50 µg/mL; in experiment [1] (setting [7]) it was above 15 µM; in experiment [2] (Colistin-Resistant), above 50 µg/mL; in experiment [2] (setting [9]), above 15 µM.
On to AKKVFKRLEKLFSKIQNDK [HP 2-20], for which the MIC in experiment [1] (setting [6]) is above 256 µg/mL; in experiment [1] (setting [7]), above 110 µM; in experiment [2] (setting [8]) it was above 256 µg/mL; in experiment [2] (setting [9]) it was above 110 µM.
Consider “GLVRKGGEKFGEKLRKIGQKIKEFFQKLALEIEQ [r-CRAMP]”, for which the MIC is above 256 µg/mL in experiment [1] (Colistin Susceptible), above 65 µM in experiment [1] (setting [7]), 64 µg/mL in experiment [2] (Colistin-Resistant) and 16 µM in experiment [2] (setting [9]).
In the case of “KYYGNGVSCNKKGCSVDWGKAIGIIGNNSAANLATGGAAGWSK (disulfide 9-14) [Mundticin]”, the minimal inhibitory concentration (MIC) in experiment [1] (Colistin Susceptible) was above 256 µg/mL; in experiment [1] (setting [7]), above 60 µM; in experiment [2] (Colistin-Resistant), above 256 µg/mL; in experiment [2] (setting [9]), above 60 µM.
In the case of H-IKEKLKKIGQKIQG-OH [CAP-18_14], the MIC in experiment [4] (Strain 121007) was above 64 µg/mL; in experiment [5] (ATCC 121110), above 64 µg/mL; in experiment [5] (setting [11]), above 40 µM.
For “GIINTLQKYYCRVRGGRCAVLSCLPKEEQIGKCSTRGRKCCRRKK (disulfide 11-40, 18-33, 23-41) [β-defensin 3]”, the MIC in experiment [1] (Colistin Susceptible) is above 50 µg/mL; in experiment [1] (setting [7]), above 10 µM; in experiment [2] (Colistin-Resistant), above 50 µg/mL; in experiment [2] (setting [9]), above 10 µM.
For the compound “GIGDPVTCLKSGAICHPVFCPRRYKQIGTCGLPGTKCCKKP (disulfide 8-37, 15-30, 20-38) [β-defensin 2]”, the MIC is above 50 µg/mL in experiment [1] (setting [6]), above 12 µM in experiment [1] (setting [7]), above 50 µg/mL in experiment [2] (setting [8]) and above 12 µM in experiment [2] (setting [9]).
As to “RRRPRPPYLPRPRPPPFFPPRLPPRIPPGFPPRFPPRFP-NH2 (C-terminus assumed) [PR39]”, the MIC worked out at 14 µM in experiment [1] (setting [7]) and 7 µM in experiment [2] (setting [9]).
Regarding H-FRNKIKEKLKKIGQKIQG-OH [CAP-18_18], the MIC was above 64 µg/mL in experiment [4] (Strain 121007), above 30 µM in experiment [4] (setting [10]), above 64 µg/mL in experiment [5] (ATCC 121110) and above 30 µM in experiment [5] (setting [11]).
For the compound H-GLRKRLRKFRNKIKEKLKKIG-OH [CAP-18_21], the MIC is 32 µg/mL in experiment [4] (Strain 121007), 12 µM in experiment [4] (setting [10]), 32 µg/mL in experiment [5] (ATCC 121110) and 12 µM in experiment [5] (setting [11]).

The term MIC denotes the lowest concentration that inhibits growth of the organism. By MIC50 is commonly meant the lowest concentration that inhibits either 50% of growth or 50% of the strains tested, depending on the study. Low readings indicate higher susceptibility, high ones lower susceptibility. The MIC90 is an inhibitory concentration at the 90% level, which refers to growth in some studies and to a panel of isolates in others. A high value points to lower susceptibility.
